In patent US10125100B2, “Kinase inhibitors” (Respivert Limited, priority 2014, dated 2018):
Where two headings read alike, the source gives them in different places.

Experiments:
B-Raf = B-Raf (Homo sapiens (Human), UniProt P15056); assay: KINOMEscan binding of kinase to standard ligand; conditions: KINOMEscan technology
Description: (§1) These assays may be conducted by DiscoverX (formerly Ambit; San Diego, Calif.).

B-Raf (V600E) = B-Raf (V600E) (Homo sapiens (Human), UniProt P15056, V600E); assay: KINOMEscan binding of kinase to standard ligand; conditions: KINOMEscan technology
Description: as §1

non-mutant kinases = assay: KinomeScan selectivity scores; format: binding; conditions: for number of individual kinase hits S(1): % Ctrl <1; for number of individual kinase hits S(10): % Ctrl <10; for number of individual kinase hits S(35): % Ctrl <35; for KinomeScan Selectivity Score S(1): non-mutant kinases with % Ctrl <1 / kinases tested; for KinomeScan Selectivity Score S(10): non-mutant kinases with % Ctrl <10 / kinases tested; for KinomeScan Selectivity Score S(35): non-mutant kinases with % Ctrl <35 / kinases tested
Description: as §1

p38 MAPKα (MAPK14) = p38 MAPKα (MAPK14) (Homo sapiens (Human), UniProt Q16539); assay: p38 MAPKα enzyme inhibition (Method 2), Z-LYTE FRET; format: biochemical
In short: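 Enzyme (200 ng/mL solution) was preincubated 2 h at RT with compound solutions of 1, 0.1, 0.01 or 0.001 μg/mL, and inhibition was read indirectly via MAPKAP-K2 activation/phosphorylation. After a 1 h RT reaction and 1 h protease development, phosphorylation was derived from the coumarin/fluorescein emission ratio.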

c-Src = c-Src (Homo sapiens (Human), UniProt P12931); assay: c-Src enzyme inhibition, Z-LYTE FRET; format: biochemical
In short: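 Human Syk and c-Src (enzyme at 2000 or 3000 ng/mL respectively, pre-dilution) preincubated 2 hr at RT with compound at 1, 0.1, 0.01 or 0.001 μg/mL; FRET peptide added with ATP (60 μM Syk, 800 μM c-Src; solution concentrations), 1 hr. Protease development 1 hr; phosphorylation from coumarin/fluorescein emission ratio.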

Syk = Syk (Homo sapiens (Human), UniProt P43405); assay: Syk enzyme inhibition, Z-LYTE FRET; format: biochemical
In short: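 Syk or c-Src enzyme (3000 or 2000 ng/mL solutions) was preincubated 2 h at RT with compound solutions at 1, 0.1, 0.01 or 0.001 µg/mL. Z-LYTE FRET peptide (8 µM solution) and ATP (800 µM solution for c-Src, 60 µM for Syk) were then added for 1 h, followed by protease development for 1 h. Phosphorylation was read as the coumarin/fluorescein emission ratio.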

Jurkat cells = assay: (r) Cell cytotoxicity assay; format: cell-based, human; conditions: 24 hours
In short: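 Jurkat cells (1×10^5/well, RPMI + 10% FBS) exposed to compound at 20, 5 or 1 μg/mL final (1.0% DMSO control) for 24 h at 37° C., 5% CO2. Then stained with 7.5 μg/mL propidium iodide for 15 min. % viability = PI-negative cells by flow cytometry, normalized to DMSO.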

[1] = Pharmacokinetics and total colon distribution after oral administration; format: in vivo; conditions: male, C57BL/6, mouse, mice, Ex. 36 measured after oral 5 mg/kg of Ex. 47 (Na salt)
Description: Studies were conducted by Sai Life Sciences (Hinjewadi, Pune, India) to investigate the systemic pharmacokinetics and total colon tissue distribution of compounds of the invention. In particular, pharmacokinetic studies were carried out in male C57BL/6 mice following a single oral administration of the compound.

[2] = total colon, read-out: total colon level
[3] = whole blood, read-out: Mean blood concentration

Chain of p38 MAPKα (MAPK14) (Q16539 whole entry): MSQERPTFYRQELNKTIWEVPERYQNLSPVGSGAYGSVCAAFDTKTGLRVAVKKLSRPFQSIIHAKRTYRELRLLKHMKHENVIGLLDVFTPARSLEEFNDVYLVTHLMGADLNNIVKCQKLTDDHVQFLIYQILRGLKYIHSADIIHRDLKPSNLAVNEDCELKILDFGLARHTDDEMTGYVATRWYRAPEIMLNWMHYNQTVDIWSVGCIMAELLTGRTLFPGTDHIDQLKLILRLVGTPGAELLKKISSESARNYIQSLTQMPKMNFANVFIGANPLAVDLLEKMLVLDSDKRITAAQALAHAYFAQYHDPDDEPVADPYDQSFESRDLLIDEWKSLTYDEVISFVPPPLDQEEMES
Chain of B-Raf (P15056 whole entry): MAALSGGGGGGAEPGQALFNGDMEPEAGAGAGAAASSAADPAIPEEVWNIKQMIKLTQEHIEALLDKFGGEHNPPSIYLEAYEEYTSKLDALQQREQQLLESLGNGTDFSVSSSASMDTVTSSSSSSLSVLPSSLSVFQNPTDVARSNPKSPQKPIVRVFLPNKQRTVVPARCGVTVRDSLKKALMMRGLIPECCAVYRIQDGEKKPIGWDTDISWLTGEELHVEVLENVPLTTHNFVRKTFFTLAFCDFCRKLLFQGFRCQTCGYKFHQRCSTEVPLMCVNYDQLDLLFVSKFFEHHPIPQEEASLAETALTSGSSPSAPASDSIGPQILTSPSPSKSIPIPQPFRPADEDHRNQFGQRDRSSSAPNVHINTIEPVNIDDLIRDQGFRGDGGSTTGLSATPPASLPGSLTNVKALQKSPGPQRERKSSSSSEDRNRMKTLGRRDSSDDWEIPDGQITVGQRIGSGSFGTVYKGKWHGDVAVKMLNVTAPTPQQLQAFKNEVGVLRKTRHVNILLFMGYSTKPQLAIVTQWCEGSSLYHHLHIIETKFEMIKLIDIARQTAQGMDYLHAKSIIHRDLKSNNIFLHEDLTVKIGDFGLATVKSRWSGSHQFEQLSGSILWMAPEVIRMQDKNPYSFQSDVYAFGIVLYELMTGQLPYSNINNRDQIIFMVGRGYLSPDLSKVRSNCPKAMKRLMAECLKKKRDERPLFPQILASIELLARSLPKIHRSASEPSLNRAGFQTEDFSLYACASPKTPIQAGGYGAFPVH
Chain of c-Src (P12931 whole entry, looked up): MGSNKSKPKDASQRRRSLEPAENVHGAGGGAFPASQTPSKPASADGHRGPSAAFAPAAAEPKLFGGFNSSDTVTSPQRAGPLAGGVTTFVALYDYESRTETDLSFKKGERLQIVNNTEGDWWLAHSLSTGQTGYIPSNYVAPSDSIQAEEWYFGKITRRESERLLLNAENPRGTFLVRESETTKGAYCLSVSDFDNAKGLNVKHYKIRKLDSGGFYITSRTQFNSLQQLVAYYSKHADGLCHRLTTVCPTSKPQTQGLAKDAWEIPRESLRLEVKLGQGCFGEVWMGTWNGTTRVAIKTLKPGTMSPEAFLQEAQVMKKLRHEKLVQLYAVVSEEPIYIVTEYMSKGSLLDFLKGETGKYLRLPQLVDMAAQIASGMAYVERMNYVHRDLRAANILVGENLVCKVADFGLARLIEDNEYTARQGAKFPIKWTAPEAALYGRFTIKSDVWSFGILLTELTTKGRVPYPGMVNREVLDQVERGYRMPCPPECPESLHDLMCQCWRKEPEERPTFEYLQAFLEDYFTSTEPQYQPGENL
Chain of B-Raf (V600E) (P15056 whole entry V600E): as the sequence (P15056 whole entry) above, with V600E counted along it

SMILES: COc1cc(Nc2cc(Oc3ccc(NC(=O)Nc4cc(C(C)(C)C)cc(NS(C)(=O)=O)c4OC)c4ccccc34)ccn2)cc(OC)c1C(=O)NCCOCCOCCO [Example 36, 4-((4-((4-(3-(5-(tert-butyl)-2-methoxy-3-(methylsulfonamido)phenyl)ureido)naphthalen-1-yl)oxy)pyridin-2-yl)amino)-N-(2-(2-(2-hydroxyethoxy)ethoxy)ethyl)-2,6-dimethoxybenzamide]
- effect on the binding of B-Raf to its standard ligand (B-Raf): did not have any significant effect
- effect on the binding of B-Raf (V600E) to its standard ligand (B-Raf (V600E)): did not have any significant effect
- number of individual kinase hits S(1) (non-mutant kinases; 50 nM): 1
- number of individual kinase hits S(10) (non-mutant kinases; 50 nM): 20
- number of individual kinase hits S(35) (non-mutant kinases; 50 nM): 60
- KinomeScan Selectivity Score S(1) (non-mutant kinases; 50 nM): 0.002
- KinomeScan Selectivity Score S(10) (non-mutant kinases; 50 nM): 0.050
- KinomeScan Selectivity Score S(35) (non-mutant kinases; 50 nM): 0.149
- number of individual kinase hits S(1) (non-mutant kinases; 500 nM): 32
- number of individual kinase hits S(10) (non-mutant kinases; 500 nM): 83
- number of individual kinase hits S(35) (non-mutant kinases; 500 nM): 120
- KinomeScan Selectivity Score S(1) (non-mutant kinases; 500 nM): 0.079
- KinomeScan Selectivity Score S(10) (non-mutant kinases; 500 nM): 0.206
- KinomeScan Selectivity Score S(35) (non-mutant kinases; 500 nM): 0.298
- IC50 (p38 MAPKα (MAPK14)): 19 nM
- IC50 (c-Src): 10 nM
- IC50 (Syk): 190 nM
- % Viability at 1 μg/mL (Jurkat cells; 1 μg/mL): 93.3%
- % Viability at 5 μg/mL (Jurkat cells; 5 μg/mL): 89.3%
- % Viability at 20 μg/mL (Jurkat cells; 20 μg/mL): 84.9%
- concentration at 0.5 h [1, 2]: 37.8 ng/g
- concentration at 1 h [1, 2]: 95.1 ng/g
- concentration at 2 h [1, 2]: 643 ng/g
- concentration at 4 h [1, 2]: 798 ng/g
- concentration at 6 h [1, 2]: 380 ng/g
- concentration at 8 h [1, 2]: 1070 ng/g
- concentration at 12 h [1, 2]: 139 ng/g
- concentration at 24 h [1, 2]: 0 ng/g
- concentration at 0.5 h [1, 3]: 0 ng/mL
- concentration at 1 h [1, 3]: 0 ng/mL
- concentration at 2 h [1, 3]: 0 ng/mL
- concentration at 4 h [1, 3]: 0 ng/mL
- concentration at 6 h [1, 3]: 0 ng/mL
- concentration at 8 h [1, 3]: 0 ng/mL
- concentration at 12 h [1, 3]: 0 ng/mL
- concentration at 24 h [1, 3]: 0 ng/mL
